Laboratory results taken from patent publication US7932213B2, “Small molecule printing” (President and Fellows of Harvard College, priority 1999, dated 2011).

What was measured:
calmodulin = calmodulin (Homo sapiens, UniProt P0DP23); test: Surface plasmon resonance (BIAcore) binding to immobilized calmodulin; conditions: SPR, steady state affinity analysis; resynthesized, purified compound; PBST containing 4% DMF
Protocol: Cy5 detection was chosen to avoid conflict with compound autofluorescence in the Cy3 channel. Positive hits from the microarray were retested for their ability to bind to the immobilized protein using surface plasmon resonance (SPR) spectroscopy (BIAcore). This process enables a rapid initial prioritization of positives prior to resynthesis, The initial secondary SPR screening was performed using compound (2 μL of a 1 mM DMF stock) directly from the original stock solutions used for microarray production. […] For this set, compound 5, 6, and 7 were resynthesized, purified, and their KDs with calmodulin determined by SPR using steady state affinity analysis.
Tetracycle 7: ^1H NMR (500 MHz, CDCl3) δ 6.95 (d, J=8.5 Hz, 2H), 6.87 (m, 4H), 6.71 (d, J=8.0 Hz, 2H), 6.55 (q, J=1.5 Hz, 1H), 6.04 (m, 1H), 4.93 (s, 1H), 4.68 (s, 1H), 3.84 (t, J=5.0 Hz, 4H), 3.34 (dd, J=17.0, 2.5 Hz, 1H), 3.28 (m, 2H), 3.16 (t, J=5.0 Hz, 4H), 3.02 (m, 1H), 2.94 (dd, J=15.0, 7.0 Hz, 1H), 2.54 (dd, J=17.5, 8.5 Hz, 1H), 2.36 (ddd J=15.5, 6.5, 3.5 Hz, 1H), 2.05 (d, J=1.5 Hz, 3H); ^13C NMR (125 MHz, CDCl3) δ 186.4, 186.1, 178.8, 177.1, 154.4, 151.2, 146.0, 143.4, 140.8, 139.5, 132.6, 132.5, 128.2, 127.1, 123.1, 122.7, 115.6, 115.5, 66.7, 48.7, 43.9, 42.6, 39.1, 32.4, 24.5, 24.1, 16.1; FT-IR (thin film) 3411, 2961, 2907, 2852, 1699, 1690, 1649, 1611, 1513, 1441, 1381, 1261, 1234, 1173, 1113, 922, 818, 730 cm^−1; HRMS (TOF ES) calcd for C33H31N2O6, 551.2182 m/z (M+H)^+; observed 551.2186 (0.8 ppm error). BIAcore Experiments Immobilization. In all experiments, calmodulin (CaM) was immobilized on a carboxymethylated dextran-coated sensor chip (CM5, Biacore AB, Uppsala, Sweden) at 25° C. For protein immobilization, ‘specific flow rate’ was selected and the protein of interest was immobilized in flow cells 2 and 4. On Biacore 3000, the sensor chip was activated (7 min in flow cells 2 and 4) by addition of 0.2 M N-ethyl-N'-(3-dimethylaminopropyl) carbodiimide hydrochloride (EDC) and 0.05 M N-hydroxysuccinimide (NHS) at 20 μL/min. […]

[1] = Precipitation of sample in SPR binding buffer (4% DMF/PBST); assay type: physicochemical; conditions: at 125 μM
Protocol: After the prioritization step, compounds 5, 6 and 7 were resynthesized, purified and subjected to KD determination. Samples were injected over a range of concentrations (e.g. 0.1-125 μM). The compound was prepared as a 10 mM stock solution in DMF. Serial dilutions of this stock were made and then added to the heated PBST (˜70° C., 1 min). In this analysis, a 200 μL final volume was prepared by addition of 8 μL of small molecule DMF solution into 192 μL of a heated PBST. The final concentration ranged between 0.015 μM and 125 μM. 5 and 6 precipitated at 125 μM in 4% DMF/PBST. Samples were injected in the alternation with blanks. “Flow cell 2 with 1 as a reference” was selected and each sample was analyzed in triplicate. For each experiment, a calibration for bulk differences between flow cells due to the high refractive index of DMF was performed by injecting blank samples containing a range of DMF concentrations (1, 2, 3, 3.5, 4, 4.5, 5%) in PBST under conditions otherwise identical to those used for samples of compounds 5, 6 and 7.

| Structure (SMILES) | Kd (calmodulin) | precipitation in 4% DMF/PBST [1] |
| --- | --- | --- |
| CC1=CC(=O)C2=C(C[C@@H]3C(=CC[C@@H]4C(=O)N(c5ccc(N6CCOCC6)cc5)C(=O)[C@@H]43)[C@@H]2c2ccc(O)cc2)C1=O [Compound 7] | 20700 ± 1000 nM | – |
| CN(C)c1ccc(/N=N/c2ccc(N3C(=O)[C@H]4[C@H](CC=C5[C@H]4C[C@H]4C(=O)N(c6ccc(F)c(Cl)c6)C(=O)[C@@]4(C)[C@H]5c4cc(Cl)ccc4O)C3=O)cc2)cc1 [Compound 5] | 121 ± 30 nM | precipitated |
| Cc1c(-c2cc(N3C(=O)[C@@H]4C[C@@H]5C(=CC[C@@H]6C(=O)N(c7ccc(/N=N/c8ccc(N(C)C)cc8)cc7)C(=O)[C@@H]65)[C@H](c5cc(Cl)ccc5O)[C@]4(C)C3=O)n(C)n2)sc2ccc(Cl)cc12 [Compound 6] | 1060 ± 90 nM | precipitated |
